Reference: patent publication US4731451A, “N-((2-oxo-3(2H)benzothiazolyl)methyl)-2-chloroacetanilides” (Monsanto Company, priority 1980, dated 1988)

Assays:
Format in all cases: in vivo
Panicum = test: Pre-emergent herbicidal activity (Table III)
Experimental: (§1) The pre-emergence tests are conducted as follows:
(§2) A good grade of top soil is placed in aluminum pans and compacted to a depth of three-eighths to one-half inch from the top of the pan. On the top of the soil is placed a predetermined number of seeds or vegetative propagules of various plant species. The soil required to level fill the pans after seeding or adding vegetative propagules is weighed into a pan. A known amount of the active ingredient applied in a solvent or as a wettable powder suspension and the soil are thoroughly mixed, and used as a cover layer for prepared pans. After treatment, the pans are moved into a greenhouse bench where they are watered from below as needed to give adequate moisture for germination and growth.
(§3) Approximately 2-3 weeks after seeding and treating, the plants are observed and the results recorded. The herbicidal rating is obtained by means of fixed scale based on the percent injury of each plant species. The ratings are defined as follows: […]
(§4) The compounds were further tested by utilizing the above procedure on the following plant species: […]

Rice = test: Pre-emergent herbicidal activity (Table III)
Experimental: as §1, §2, §3, §4

Sorghum = test: Pre-emergent herbicidal activity (Table III)
Experimental: as §1, §2, §3, §4

Morningglory [1] = test: Pre-emergent herbicidal activity (Table III)
Experimental: as §1, §2, §3, §4

Wild Buckwheat = test: Pre-emergent herbicidal activity (Table III)
Experimental: as §1, §2, §3, §4

Lambsquarters [2] = test: Pre-emergent herbicidal activity (Table III)
Experimental: as §1, §2, §3, §4

Cocklebur [3] = test: Pre-emergent herbicidal activity (Table III)
Experimental: as §1, §2, §3, §4

Crabgrass = test: Pre-emergent herbicidal activity (Table III)
Experimental: as §1, §2, §3, §4

Velvetleaf [4] = test: Pre-emergent herbicidal activity (Table III)
Experimental: as §1, §2, §3, §4

Smartweed [5] = test: Pre-emergent herbicidal activity (Table III)
Experimental: as §1, §2, §3, §4

Barnyardgrass [6] = test: Pre-emergent herbicidal activity (Table III)
Experimental: as §1, §2, §3, §4

Soybean = test: Pre-emergent herbicidal activity (Table III)
Experimental: as §1, §2, §3, §4

Hemp Sesbania = test: Pre-emergent herbicidal activity (Table III)
Experimental: as §1, §2, §3, §4

Downy Brome [7] = test: Pre-emergent herbicidal activity (Table III)
Experimental: as §1, §2, §3, §4

Sugarbeet = test: Pre-emergent herbicidal activity (Table III)
Experimental: as §1, §2, §3, §4

Wheat = test: Pre-emergent herbicidal activity (Table III)
Experimental: as §1, §2, §3, §4

Morningglory [8] = test: Pre-emergent herbicidal activity (Table II); conditions: 2-3 weeks
Experimental: as §1, §2, §3
(§5) The plant species utilized in one set of tests, the data for which are shown in Table II, are identified by letter in accordance with the following legend: […]

Lambsquarters [9] = test: Pre-emergent herbicidal activity (Table II); conditions: 2-3 weeks
Experimental: as §1, §2, §3, §5

Cocklebur [10] = test: Pre-emergent herbicidal activity (Table II); conditions: 2-3 weeks
Experimental: as §1, §2, §3, §5

Velvetleaf [11] = test: Pre-emergent herbicidal activity (Table II); conditions: 2-3 weeks
Experimental: as §1, §2, §3, §5

Smartweed [12] = test: Pre-emergent herbicidal activity (Table II); conditions: 2-3 weeks
Experimental: as §1, §2, §3, §5

Yellow Nutsedge = test: Pre-emergent herbicidal activity (Table II); conditions: 2-3 weeks
Experimental: as §1, §2, §3, §5

Barnyardgrass [13] = test: Pre-emergent herbicidal activity (Table II); conditions: 2-3 weeks
Experimental: as §1, §2, §3, §5

Canada Thistle = test: Pre-emergent herbicidal activity (Table II); conditions: 2-3 weeks
Experimental: as §1, §2, §3, §5

Johnsongrass = test: Pre-emergent herbicidal activity (Table II); conditions: 2-3 weeks
Experimental: as §1, §2, §3, §5

Downy Brome [14] = test: Pre-emergent herbicidal activity (Table II); conditions: 2-3 weeks
Experimental: as §1, §2, §3, §5

Quackgrass = test: Pre-emergent herbicidal activity (Table II); conditions: 2-3 weeks
Experimental: as §1, §2, §3, §5
Note: ranges in brackets are in %.

Compound: COc1cccc(C)c1N(Cn1c(=O)sc2ccccc21)C(=O)CCl [Example 2, N-(2'-methoxy-6'-methyl)-N-[(2-oxo-3(2H)-benzothiazolyl)methyl]-2-chloroacetanilide]
- Herbicidal rating (Panicum; 0.0112 kg/ha): 0 (0-24)
- Herbicidal rating (Panicum; 0.056 kg/ha): 2 (50-74)
- Herbicidal rating (Panicum; 0.28 kg/ha): 1 (25-49)
- Herbicidal rating (Panicum; 1.12 kg/ha): 3 (75-100)
- Herbicidal rating (Panicum; 5.6 kg/ha): 3 (75-100)
- Herbicidal rating (Rice; 0.0112 kg/ha): 0 (0-24)
- Herbicidal rating (Rice; 0.056 kg/ha): 0 (0-24)
- Herbicidal rating (Rice; 0.28 kg/ha): 1 (25-49)
- Herbicidal rating (Rice; 1.12 kg/ha): 3 (75-100)
- Herbicidal rating (Rice; 5.6 kg/ha): 3 (75-100)
- Herbicidal rating (Sorghum; 0.0112 kg/ha): 0 (0-24)
- Herbicidal rating (Sorghum; 0.056 kg/ha): 0 (0-24)
- Herbicidal rating (Sorghum; 0.28 kg/ha): 0 (0-24)
- Herbicidal rating (Sorghum; 1.12 kg/ha): 1 (25-49)
- Herbicidal rating (Sorghum; 5.6 kg/ha): 1 (25-49)
- Herbicidal rating (Morningglory [1]; 0.0112 kg/ha): 0 (0-24)
- Herbicidal rating (Morningglory [1]; 0.056 kg/ha): 0 (0-24)
- Herbicidal rating (Morningglory [1]; 0.28 kg/ha): 0 (0-24)
- Herbicidal rating (Morningglory [1]; 1.12 kg/ha): 0 (0-24)
- Herbicidal rating (Morningglory [1]; 5.6 kg/ha): 0 (0-24)
- Herbicidal rating (Wild Buckwheat; 0.0112 kg/ha): 0 (0-24)
- Herbicidal rating (Wild Buckwheat; 0.056 kg/ha): 0 (0-24)
- Herbicidal rating (Wild Buckwheat; 0.28 kg/ha): 0 (0-24)
- Herbicidal rating (Wild Buckwheat; 1.12 kg/ha): 0 (0-24)
- Herbicidal rating (Wild Buckwheat; 5.6 kg/ha): 0 (0-24)
- Herbicidal rating (Lambsquarters [2]; 0.0112 kg/ha): 0 (0-24)
- Herbicidal rating (Lambsquarters [2]; 0.056 kg/ha): 0 (0-24)
- Herbicidal rating (Lambsquarters [2]; 0.28 kg/ha): 2 (50-74)
- Herbicidal rating (Lambsquarters [2]; 1.12 kg/ha): 3 (75-100)
- Herbicidal rating (Lambsquarters [2]; 5.6 kg/ha): 1 (25-49)
- Herbicidal rating (Cocklebur [3]; 0.0112 kg/ha): 0 (0-24)
- Herbicidal rating (Cocklebur [3]; 0.056 kg/ha): 0 (0-24)
- Herbicidal rating (Cocklebur [3]; 0.28 kg/ha): 0 (0-24)
- Herbicidal rating (Cocklebur [3]; 1.12 kg/ha): 0 (0-24)
- Herbicidal rating (Cocklebur [3]; 5.6 kg/ha): 0 (0-24)
- Herbicidal rating (Crabgrass; 0.0112 kg/ha): 0 (0-24)
- Herbicidal rating (Crabgrass; 0.056 kg/ha): 0 (0-24)
- Herbicidal rating (Crabgrass; 0.28 kg/ha): 1 (25-49)
- Herbicidal rating (Crabgrass; 1.12 kg/ha): 3 (75-100)
- Herbicidal rating (Crabgrass; 5.6 kg/ha): 3 (75-100)
- Herbicidal rating (Velvetleaf [4]; 0.0112 kg/ha): 0 (0-24)
- Herbicidal rating (Velvetleaf [4]; 0.056 kg/ha): 0 (0-24)
- Herbicidal rating (Velvetleaf [4]; 0.28 kg/ha): 0 (0-24)
- Herbicidal rating (Velvetleaf [4]; 1.12 kg/ha): 0 (0-24)
- Herbicidal rating (Velvetleaf [4]; 5.6 kg/ha): 0 (0-24)
- Herbicidal rating (Smartweed [5]; 0.0112 kg/ha): 0 (0-24)
- Herbicidal rating (Smartweed [5]; 0.056 kg/ha): 0 (0-24)
- Herbicidal rating (Smartweed [5]; 0.28 kg/ha): 1 (25-49)
- Herbicidal rating (Smartweed [5]; 1.12 kg/ha): 2 (50-74)
- Herbicidal rating (Smartweed [5]; 5.6 kg/ha): 2 (50-74)
- Herbicidal rating (Barnyardgrass [6]; 0.0112 kg/ha): 0 (0-24)
- Herbicidal rating (Barnyardgrass [6]; 0.056 kg/ha): 2 (50-74)
- Herbicidal rating (Barnyardgrass [6]; 0.28 kg/ha): 3 (75-100)
- Herbicidal rating (Barnyardgrass [6]; 1.12 kg/ha): 3 (75-100)
- Herbicidal rating (Barnyardgrass [6]; 5.6 kg/ha): 3 (75-100)
- Herbicidal rating (Soybean; 0.0112 kg/ha): 0 (0-24)
- Herbicidal rating (Soybean; 0.056 kg/ha): 0 (0-24)
- Herbicidal rating (Soybean; 0.28 kg/ha): 0 (0-24)
- Herbicidal rating (Soybean; 1.12 kg/ha): 0 (0-24)
- Herbicidal rating (Soybean; 5.6 kg/ha): 0 (0-24)
- Herbicidal rating (Hemp Sesbania; 0.0112 kg/ha): 0 (0-24)
- Herbicidal rating (Hemp Sesbania; 0.056 kg/ha): 0 (0-24)
- Herbicidal rating (Hemp Sesbania; 0.28 kg/ha): 0 (0-24)
- Herbicidal rating (Hemp Sesbania; 1.12 kg/ha): 0 (0-24)
- Herbicidal rating (Hemp Sesbania; 5.6 kg/ha): 2 (50-74)
- Herbicidal rating (Downy Brome [7]; 0.0112 kg/ha): 0 (0-24)
- Herbicidal rating (Downy Brome [7]; 0.056 kg/ha): 0 (0-24)
- Herbicidal rating (Downy Brome [7]; 0.28 kg/ha): 1 (25-49)
- Herbicidal rating (Downy Brome [7]; 1.12 kg/ha): 3 (75-100)
- Herbicidal rating (Downy Brome [7]; 5.6 kg/ha): 3 (75-100)
- Herbicidal rating (Sugarbeet; 0.0112 kg/ha): 0 (0-24)
- Herbicidal rating (Sugarbeet; 0.056 kg/ha): 0 (0-24)
- Herbicidal rating (Sugarbeet; 0.28 kg/ha): 0 (0-24)
- Herbicidal rating (Sugarbeet; 1.12 kg/ha): 0 (0-24)
- Herbicidal rating (Sugarbeet; 5.6 kg/ha): 0 (0-24)
- Herbicidal rating (Wheat; 0.0112 kg/ha): 0 (0-24)
- Herbicidal rating (Wheat; 0.056 kg/ha): 0 (0-24)
- Herbicidal rating (Wheat; 0.28 kg/ha): 0 (0-24)
- Herbicidal rating (Wheat; 1.12 kg/ha): 0 (0-24)
- Herbicidal rating (Wheat; 5.6 kg/ha): 2 (50-74)
- Herbicidal rating (Morningglory [8]; 5.6 kg/ha): 0 (0-24)
- Herbicidal rating (Morningglory [8]; 11.2 kg/ha): 0 (0-24)
- Herbicidal rating (Lambsquarters [9]; 5.6 kg/ha): 1 (25-49)
- Herbicidal rating (Lambsquarters [9]; 11.2 kg/ha): 1 (25-49)
- Herbicidal rating (Cocklebur [10]; 5.6 kg/ha): 0 (0-24)
- Herbicidal rating (Cocklebur [10]; 11.2 kg/ha): 0 (0-24)
- Herbicidal rating (Velvetleaf [11]; 5.6 kg/ha): 0 (0-24)
- Herbicidal rating (Velvetleaf [11]; 11.2 kg/ha): 0 (0-24)
- Herbicidal rating (Smartweed [12]; 5.6 kg/ha): 0 (0-24)
- Herbicidal rating (Smartweed [12]; 11.2 kg/ha): 0 (0-24)
- Herbicidal rating (Yellow Nutsedge; 5.6 kg/ha): 3 (75-100)
- Herbicidal rating (Yellow Nutsedge; 11.2 kg/ha): 3 (75-100)
- Herbicidal rating (Barnyardgrass [13]; 5.6 kg/ha): 3 (75-100)
- Herbicidal rating (Barnyardgrass [13]; 11.2 kg/ha): 3 (75-100)
- Herbicidal rating (Canada Thistle; 5.6 kg/ha): 0 (0-24)
- Herbicidal rating (Canada Thistle; 11.2 kg/ha): 0 (0-24)
- Herbicidal rating (Johnsongrass; 5.6 kg/ha): 0 (0-24)
- Herbicidal rating (Johnsongrass; 11.2 kg/ha): 0 (0-24)
- Herbicidal rating (Downy Brome [14]; 5.6 kg/ha): 1 (25-49)
- Herbicidal rating (Downy Brome [14]; 11.2 kg/ha): 2 (50-74)
- Herbicidal rating (Quackgrass; 5.6 kg/ha): 2 (50-74)
- Herbicidal rating (Quackgrass; 11.2 kg/ha): 1 (25-49)
